A short description of series [1]: ABTS+ radical scavenging activity assay. The note with it: 100 µM. Here is the method: Second, the ability of BMTTZD analogs to scavenge ABTS^+ radicals was examined. ABTS^+ radicals were obtained via the oxidation of ABTS using potassium persulfate. All samples (Trolox (positive control) and 1–8) were tested at 100 µM.
The ability of the BMTTZD analogs to scavenge ABTS^+ radicals was assessed as previously described, with minor modifications. To a 50 mL tube were added 20 mL aqueous K2S2O8 solution (2.45 mM) and 20 mL aqueous ABTS solution (7 mM). The combined mixture was placed at 22 °C in a place without light for 17 h to generate the ABTS^+ radicals. For adequate absorbance control (0.70 ± 0.02 at 734 nm), methanol was added to the combined mixture. Test compounds (Trolox and analogs 1–8; 10 µL in 10% DMSO/90% EtOH [v/v] solution) were mixed with 90 µL ABTS^+ radical solution. After storage in a place without light for 2 min, the well absorbance at 734 nm was acquired for 10 min every 1 min by using a microplate reader (VersaMax®). All test compounds were tested at 100 µM. The activity of the analogs was compared to that of Trolox.

Series [2] relates to B16F10 cells. In words: Cell cytotoxicity test (EZ-Cytox). The note with it: 2.5–20 µM, 48 and 72 h. The class given is cell-based, murine. As for the experimental part: Because analogs 1–3 and 5 exerted potent mushroom tyrosinase inhibitory activities, their effects on anti-melanogenic and cellular tyrosinase activities were evaluated in B16F10 murine cells. Prior to examining their cellular activity, their cell viabilities were investigated. Cell viability was evaluated at 48 and 72 h after treatment with five different concentrations of analogs.
The effect on B16F10 cytotoxicity was assessed following a previously described method. Cells (1 × 10^4 cells/well of a 96-well plate) were cultivated for 24 h with 5% CO2 at 37 °C. The cells were exposed to the BMTTZD analogs (test concentrations: 20, 10, 5, 2.5, and 0 µM) and cultivated with 5% CO2 at 37 °C for 72 h. An EZ-Cytox solution (10 µL; EZ-500, DoGenBio, Seoul, Republic of Korea) was exposed to each well, and the plate was cultivated for 2 h. Cell viability was calculated from the well absorbance measured at 450 nm utilizing a reader (VersaMax®).

Series [3] has as its target mushroom tyrosinase (Agaricus bisporus, UniProt C7FF04). The series is described as follows: Kinetic study of mushroom tyrosinase inhibition (Lineweaver–Burk and Dixon plots). The class given is biochemical. The note with it: substrate L-dopa 0.5–16 mM. Here is the method: The initial rate of dopachrome generation was examined at various BMTTZD analog concentrations (0, 1.5, 3, and 6 µM for analog 1; 0, 2, 4, and 8 µM for analogs 2 and 5; and 0, 0.05, 0.1, and 0.2 µM for 3) with 0.5, 1, 2, 4, 8, or 16 mM L-dopa as substrates using mushroom tyrosinase. Plotting the reciprocal of the dopachrome formation rate against the inverse of the L-dopa concentration produced Lineweaver–Burk plots (Figure 2). Each Lineweaver–Burk plot created four straight lines with different slopes. For analogs 1 and 3, the four straight lines met at a point on the y-axis, whereas for analogs 2 and 5, the four straight lines converged at a point in the second quadrant.
The Dixon plots produced lines that met in the second quadrant. The x-coordinate of the convergence position represents the inhibition constant (Ki) of the ligand.
Lineweaver–Burk (L-B) plots were acquired for the kinetic analysis of analogs against mushroom tyrosinase as previously described. In brief, 10 µL of a solution of DMSO and BMTTZD analogs 1–3 or 5 (final concentrations: 0, 1.5, 3, and 6 µM for analog 1; 0, 2, 4, and 8 µM for analogs 2 and 5; and 0, 0.05, 0.1, and 0.2 µM for analog 3) in each well of a 96-well plate was mixed with 20 µL of aqueous mushroom tyrosinase solution (200 units/mL) and 170 µL of an aqueous substrate mixture (various concentrations of L-dopa (final concentrations: 16, 8, 4, 2, 1 and 0.5 mM) and 17.2 mM sodium phosphate buffer (pH 6.5)). During incubation (15 min at 37 °C), the increase in the well absorbance (ΔOD475/min) was calculated at 1 min intervals utilizing a VersaMax® reader.

Series [4] can be described thus: DPPH radical scavenging activity assay. Particulars: 500 µM. Here is the method:
First, the ability of BMTTZD analogs 1–8 to scavenge DPPH radicals was examined using L-ascorbic acid (vitamin C; positive control). All samples were tested at 500 µM.
The ability of the BMTTZD analogs to scavenge DPPH radicals was evaluated as previously reported. To each well of a 96-well plate containing analogs 1–8 (5 mM in […]; 20 µL) was added a DPPH solution (0.2 mM in methanol; 180 µL). The mixture was kept in a place without light for 30 min at 25°C to generate DPPH radicals. The well absorbance at 517 nm was measured utilizing a VersaMax® reader. The ability of the analogs to remove DPPH radicals was compared to that of vitamin C.
For orientation: Loss of DPPH colour is used to gauge radical scavenging.

In series [5] the test system is mushroom tyrosinase. In words: Mushroom tyrosinase inhibition assay (dopachrome, 475 nm). The class given is biochemical. Particulars: for IC50: mushroom tyrosinase. Here is the method: The ability of the BMTTZD analogs to inhibit mushroom tyrosinase was evaluated in the presence of L-dopa and L-tyrosine as previously described.
A short description of series [6]: In vitro ROS scavenging activity assay (SIN-1, DCFH-DA/esterase). The note with it: test sample 40 µM; SIN-1 10 µM. Here is the method:
Third, the ability of analogs 1–8 to scavenge in vitro ROS was determined. Esterase was mixed with 2′,7′-dichlorodihydrofluorescein diacetate (DCFH-DA) to produce 2′,7′-dichlorodihydrofluorescein (DCFH). 3-Morpholinosydnonimine (SIN-1) generates ROS that react with DCFH, resulting in the formation of DCF (2′,7′-dichlorofluorescein). Therefore, the ability of analogs 1–8 to scavenge ROS was calculated by measuring the fluorescence of DCF with 10 µM SIN-1 and 40 µM test samples (Trolox (positive control) and analogs 1–8). […] The ability of analogs to scavenge ROS was examined as previously described. To a 15 mL tube were added DCFH-DA solution (1.25 mM; 50 µL), phosphate buffer (50 mM, 4.9 mL), and esterase (600 units/mL; 50 µL). The esterase–DCFH-DA solution was left in a dark place for 30 min. A 10 µL SIN-1 solution was added to each well of a black 96-well plate and mixed with phosphate buffer (180 µL) and Trolox (10 µL) or analogs 1–8 (10 µL). SIN-1, Trolox, and analogs 1–8 were treated at 10, 40, and 40 µM, respectively. After 5 min, 50 µL of the esterase–DCFH-DA solution was added to each well. The well fluorescence of DCF was acquired at 535 nm utilizing a microplate reader (Berthold Advances GmbH & Co., Bad Wildbad, Germany) using a 485 nm excitation wavelength. Trolox was used to compare ROS scavenging activity.

Where two headings read alike, the source gives them in different places.

Chain of mushroom tyrosinase (Agaricus bisporus, UniProt C7FF04) (C7FF04 1-392): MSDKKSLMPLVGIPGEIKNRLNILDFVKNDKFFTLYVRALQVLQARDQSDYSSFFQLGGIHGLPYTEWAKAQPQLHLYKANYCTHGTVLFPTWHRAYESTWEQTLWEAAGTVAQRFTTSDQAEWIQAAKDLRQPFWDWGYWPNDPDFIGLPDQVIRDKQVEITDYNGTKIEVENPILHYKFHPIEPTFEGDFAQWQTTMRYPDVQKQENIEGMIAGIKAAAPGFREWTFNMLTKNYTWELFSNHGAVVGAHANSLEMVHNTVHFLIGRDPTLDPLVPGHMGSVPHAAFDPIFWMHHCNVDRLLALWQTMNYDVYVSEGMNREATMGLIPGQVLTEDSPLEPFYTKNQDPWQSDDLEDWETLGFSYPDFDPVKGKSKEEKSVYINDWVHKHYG

The term IC50 denotes the concentration that inhibits the measured activity by half. Consider `CN1C(=O)/C(=C/c2ccc(O)c(O)c2)SC1=S` [Analog 2, (Z)-5-(3,4-Dihydroxybenzylidene)-3-methyl-2-thioxothiazolidin-4-one], for which, in series [1], the “ABTS^+ radical scavenging activity” value was 92%. For the same compound, the “cytotoxicity (cell viability)” value in series [2] is listed as “significant cytotoxicity in a concentration-dependent manner, even at 2.5 µM”. In series [3], the “type of tyrosinase inhibition (Lineweaver–Burk plots)” value is “mixed-type inhibitors”. In addition, in series [4], the “DPPH radical scavenging activity” value came to 93%. Besides, in series [5] (substrate L-dopa), the “tyrosinase inhibition, fold stronger than kojic acid” value was “four times stronger than kojic acid”. Besides, the IC50 in series [5] (substrate L-dopa, read-out: IC50 (Mean ± SEM, µM) L-Dopa) amounted to 6.18 ± 0.17 µM; in series [5] (substrate L-tyrosine, read-out: IC50 (Mean ± SEM, µM) L-Tyrosine), 3.77 ± 0.47 µM.
On to `Cc1c(C)c2c(c(C)c1O)CCC(C)(C(=O)O)O2` (stereo not drawn) [Trolox, reference compound], for which the “ABTS^+ radical scavenging activity” value in series [1] came out at 95%. The “effect on SIN-1-induced ROS levels” value in series [6] is reported as “significantly decreased the SIN-1-induced ROS contents”.

Values taken from publication PMC11206987, “Investigation of the Efficacy of Benzylidene-3-methyl-2-thioxothiazolidin-4-one Analogs with Antioxidant Activities on the Inhibition of Mushroom and Mammal Tyrosinases” (Molecules, 2024).
